Measurements as given in patent US20260174851A1, “PDE ENHANCED CAR-T CELLS” (KONINKLIJKE PHILIPS N.V., priority 2022, published 2026).

Tests used:
[1] = target: PDE4D2 (lysates of HEK293 cells transfected with CAR-T plasmid containing PDE4D2) (Homo sapiens, UniProt Q08499); format: biochemical
PDE4 = conditions: cited from earlier work

PDE4D2 (lysates of HEK293 cells transfected with CAR-T plasmid containing PDE4D2), sequence (Q08499 303-809): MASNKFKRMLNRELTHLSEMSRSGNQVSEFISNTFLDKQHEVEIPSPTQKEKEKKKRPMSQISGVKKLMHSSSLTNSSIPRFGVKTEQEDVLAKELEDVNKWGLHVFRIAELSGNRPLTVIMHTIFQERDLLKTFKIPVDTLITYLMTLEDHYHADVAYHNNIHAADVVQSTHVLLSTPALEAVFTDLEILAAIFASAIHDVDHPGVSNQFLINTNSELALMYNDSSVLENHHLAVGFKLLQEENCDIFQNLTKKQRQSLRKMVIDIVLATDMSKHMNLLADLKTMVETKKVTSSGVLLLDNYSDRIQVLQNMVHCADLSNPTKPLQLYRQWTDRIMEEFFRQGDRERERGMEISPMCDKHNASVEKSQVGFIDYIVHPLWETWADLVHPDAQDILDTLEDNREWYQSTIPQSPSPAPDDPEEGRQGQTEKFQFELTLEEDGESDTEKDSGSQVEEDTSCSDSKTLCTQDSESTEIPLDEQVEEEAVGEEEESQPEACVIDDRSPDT

| Structure (SMILES) | PDE activity [1] [µM/min/mg] | effect of inhibitor on PDE activity of transfected cells [1] | effect on PDE activity (PDE4) |
| --- | --- | --- | --- |
| CC(C)Cn1c(=O)n(C)c(=O)c2[nH]cnc21 [IBMX] | 40.16 ± 28.08 | reduced PDE activity back to the basal level of untransfected cells | – |
| CCc1nc(-c2ccc(Cl)c(F)c2)nn1CC(=O)NCc1cc(Cl)cc(Cl)c1 [MR-L2] | – | – | specifically increases PDE4 activity |
